We go through 16 molecules from PMC9098912, “Molecular basis for inhibiting human glucose transporters by exofacial inhibitors” (Nature Communications, 2022).

Entries after “also recorded” stand apart in the source; their conditions may differ.

For one assay, the system named is GLUT1. Further details: method as in Siebeneicher et al., 2016. The note with it: SAR of Bayer compounds; ref Siebeneicher et al., 2016; cited from earlier work.
The next assay addresses T1, WT GLUT3 (Homo sapiens, UniProt P11169, N43T).
T1 construct: His10 (N); made in house; host or cells: Sf9 insect cells (baculovirus)
T1 sequence (P11169 1-496 N43T): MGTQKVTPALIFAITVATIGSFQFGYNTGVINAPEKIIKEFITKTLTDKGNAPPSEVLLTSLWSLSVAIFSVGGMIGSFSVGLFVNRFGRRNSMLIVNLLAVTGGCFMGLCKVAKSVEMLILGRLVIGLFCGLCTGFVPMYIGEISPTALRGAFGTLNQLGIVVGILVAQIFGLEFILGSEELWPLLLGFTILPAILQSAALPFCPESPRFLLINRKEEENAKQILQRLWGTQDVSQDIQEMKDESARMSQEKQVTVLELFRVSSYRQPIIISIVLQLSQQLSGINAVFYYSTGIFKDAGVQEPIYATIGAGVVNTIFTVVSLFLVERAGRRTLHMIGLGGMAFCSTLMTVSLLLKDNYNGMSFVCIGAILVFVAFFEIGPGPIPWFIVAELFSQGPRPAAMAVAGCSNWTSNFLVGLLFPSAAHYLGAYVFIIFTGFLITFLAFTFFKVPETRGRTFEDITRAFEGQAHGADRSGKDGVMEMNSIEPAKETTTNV
The assay can be described thus: Microscale thermophoresis (MST) binding assay. The note with it: for Figure 1e right: MST binding curve, Mean: GLUT3, log [phloretin]. Further details: Figure 1e middle: MST binding curve, Mean / Figure 1e right: MST binding curve, Mean / Figure 2c: MST binding curve, Mean: unit not given here. As to the method: (§1) All mutants were generated by standard PCR-based strategy.
(§2) Inhibitors with serial dilutions were mixed with indicated protein. […] MST analyses were conducted on a Monolith NT. […] The MST data was analyzed by Monolith NT.115.

The target in assay [1] is T2, GLUT3exo (GLUT3 S64W and I305W) (Homo sapiens, UniProt P11169, I305W/N43T/S64W).
T2 construct: His10 (N); made in house; host or cells: Sf9 insect cells (baculovirus)
T2 sequence (P11169 whole entry N43T/S64W/I305W): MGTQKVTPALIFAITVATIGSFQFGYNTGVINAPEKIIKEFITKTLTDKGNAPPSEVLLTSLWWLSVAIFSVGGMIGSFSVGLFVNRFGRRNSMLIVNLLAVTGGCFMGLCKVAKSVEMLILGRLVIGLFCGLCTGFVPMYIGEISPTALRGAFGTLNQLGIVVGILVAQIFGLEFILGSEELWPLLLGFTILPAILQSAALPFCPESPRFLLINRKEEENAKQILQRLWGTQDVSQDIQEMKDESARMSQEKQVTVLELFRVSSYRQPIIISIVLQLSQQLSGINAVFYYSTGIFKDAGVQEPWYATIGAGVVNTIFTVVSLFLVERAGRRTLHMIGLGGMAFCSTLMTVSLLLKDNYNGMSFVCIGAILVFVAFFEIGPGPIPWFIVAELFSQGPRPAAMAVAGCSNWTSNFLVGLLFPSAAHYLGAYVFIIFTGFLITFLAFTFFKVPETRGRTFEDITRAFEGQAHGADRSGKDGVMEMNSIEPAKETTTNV
As to the kind of experiment: biochemical. The assay is classed as binding. The note with it: for Figure 1e right: MST binding curve, Mean: GLUT3 dTrp mutant, log [phloretin]. As to the method:
Following the same principle for the engineering of XylE-WW, we introduced two Trp substitutions, S64W and I305W, on the extracellular segments of TM2 and TM8 of GLUT3, respectively. This variant will be referred to as GLUT3exo hereafter (Fig. 1a). The two bulky substituents were expected to trap GLUT3 in an outward-facing conformation.
as §1, §2

As for `COc1ccccc1N1CCN(c2ncnc3c2cnn3-c2ccccc2)CC1` [cmpd 3], the “GLUT1 potency” value in the assay with GLUT1 is given as “increased the potency”.
Regarding `FC(F)(F)Oc1ccccc1N1CCN(c2ncnc3c2cnn3-c2ccccc2)CC1` [cmpd 4], the “GLUT1 potency” value with GLUT1 is “completely inactive”.
Regarding `FC(F)(F)c1ccccc1N1CCN(c2ncnc3c2cnn3-c2ccccc2)CC1` [cmpd 6], the “GLUT1 potency” value in the assay with GLUT1 is “completely inactive”.
As to `COc1cccc(N2CCN(c3ncnc4c3cnn4-c3ccccc3)CC2)c1` [cmpd 8], the “GLUT1 potency” value in the assay on GLUT1 was “decreased the GLUT1 potency”.
Take `COc1ccc(N2CCN(c3ncnc4c3cnn4-c3ccccc3)CC2)cc1` [cmpd 10]: in the assay with GLUT1, the “GLUT1 potency” value is recorded as “decreased the GLUT1 potency”.
On to `COc1ccccc1N1CCN(c2ncnc3c2cnn3-c2ccccc2)CC1C` (stereo not shown) [cmpd 37], for which the “GLUT1 potency” value in the assay with GLUT1 is “tolerated”.
Take `COc1ccccc1N1CC2(C1)CN(c1ncnc3c1cnn3-c1ccccc1)C2` [cmpd 41]: in the assay with GLUT1, the “GLUT1 potency” value is recorded as “less potent”.
For the molecule `COc1ccccc1N1CCCN(c2ncnc3c2cnn3-c2ccccc2)CC1` [cmpd 42], the “GLUT1 potency” value with GLUT1 was “increased the potency”.
As for `COc1ccccc1N1CCN(c2ncnc3c2cnn3-c2ccccc2F)CC1` [cmpd 49], the “GLUT1 potency” value with GLUT1 is recorded as “without significant loss of GLUT1 inhibition activity; also recorded: increased the potency”.
For the molecule `COc1ccccc1N1CCN(c2ncnc3c2cnn3-c2ccccn2)CC1` [cmpd 63], the “GLUT1 potency” value in the assay on GLUT1 is recorded as “significantly reduced the potency”.
As for `COc1ccccc1N1CCN(c2ncnc3c2cnn3-c2ncccc2F)CC1` [cmpd 66], the “GLUT1 potency” value with GLUT1 is reported as “significantly reduced the potency”.
Take `COc1ccccc1N1CCN(c2ncnc3c2cnn3-c2ccccc2OC)CC1` [compound 50]: in the assay on GLUT1, the “GLUT1 potency” value was “without significant loss of GLUT1 inhibition activity”.
In the case of `COc1ccccc1N1CCN(c2ncnc3c2cnn3-c2ccccc2C)CC1` [compound 51], in the assay with GLUT1, the “GLUT1 potency” value is recorded as “without significant loss of GLUT1 inhibition activity”.
`COc1ccccc1N1CCN(c2ncnc3c2cnn3-c2cccnc2)CC1` [compound 64]: the “GLUT1 potency” value with GLUT1 is reported as “significantly reduced the potency”.
Take `COc1ccccc1N1CCN(c2ncnc3c2cnn3-c2ccncc2)CC1` [compound 65]: in the assay with GLUT1, the “GLUT1 potency” value is reported as “significantly reduced the potency”.
`O=C(CCc1ccc(O)cc1)c1c(O)cc(O)cc1O` [phloretin]: the “Figure 1e right: MST binding curve, Mean” value is 99.1935 at WT GLUT3 (M -3.30103); 89.7967 on WT GLUT3 (M -3.60206); 81.0827 at WT GLUT3 (M -3.90309); 66.445 on WT GLUT3 (M -4.20412); 50.3655 at WT GLUT3 (M -4.50515); 41.2635 on WT GLUT3 (M -4.80618). Also, the “Figure 1e right: MST binding curve, Mean” value stood at 25.71 on WT GLUT3 (M -5.10721); 15.7731 on WT GLUT3 (M -5.40824); 5.8894 on WT GLUT3 (M -5.70927); 4.0557 at WT GLUT3 (M -6.0103); 2.0286 at WT GLUT3 (M -6.31133); 4.4085 at WT GLUT3 (M -6.61236). The “Figure 1e right: MST binding curve, Mean” value at WT GLUT3 (M -6.91339) is recorded as 1.9121; on WT GLUT3 (M -7.21442), -7.4814; on WT GLUT3 (M -7.51545), -2.4182; on WT GLUT3 (M -7.81648), 0.9156; in assay [1] (M -3.30103), 98.0572; in assay [1] (M -3.60206) it was 93.8274. The “Figure 1e right: MST binding curve, Mean” value was 89.3364 in assay [1] (M -3.90309); 79.2593 in assay [1] (M -4.20412); 66.4804 in assay [1] (M -4.50515); 46.5416 in assay [1] (M -4.80618); 34.4965 in assay [1] (M -5.10721); 22.7361 in assay [1] (M -5.40824). Further, the “Figure 1e right: MST binding curve, Mean” value was 13.3872 in assay [1] (M -5.70927); 7.2146 in assay [1] (M -6.0103); 0.8877 in assay [1] (M -6.31133); 6.4707 in assay [1] (M -6.61236); 2.3532 in assay [1] (M -6.91339); 1.6413 in assay [1] (M -7.21442). Also, the “Figure 1e right: MST binding curve, Mean” value in assay [1] (M -7.51545) is given as 0.1149; in assay [1] (M -7.81648) it was 2.456. In addition, the values for the Kd (on WT GLUT3 (WT GLUT3); in assay [1]) were 26.3 ± 3.2 µM and 15.5 ± 1.5 µM, respectively.
